Test results: publication PMC3364000 (Vaccine, 2009)
Peptide text beside a SMILES is read from it.

How the values were obtained:
Test in all cases: biochemical
Assay type in all cases: binding
HLA-DRB1*1501 = HLA-DRB1*1501 (Homo sapiens, UniProt P01903+P01911)
HLA-DRB1*0101 = HLA-DRB1*0101 (Homo sapiens, UniProt P01903+P01911, A100R/D57E/F55L/F60I/F76Y/I96L/L162R/M171V/P40L/Q125E/R42F/V115G/Y59C)
HLA-DRB1*0301 = HLA-DRB1*0301 (Homo sapiens, UniProt P01903+P01911, A100K/A102G/A103R/A169T/F55Y/I96L/K41T/L162R/M171V/P40S/Q125H/Q178H/Q39Y/R42S/S66N/T106N/T262R/W38E/Y61H)
HLA-DRB1*0301, sequence (P01903 26-254, other chains not shown): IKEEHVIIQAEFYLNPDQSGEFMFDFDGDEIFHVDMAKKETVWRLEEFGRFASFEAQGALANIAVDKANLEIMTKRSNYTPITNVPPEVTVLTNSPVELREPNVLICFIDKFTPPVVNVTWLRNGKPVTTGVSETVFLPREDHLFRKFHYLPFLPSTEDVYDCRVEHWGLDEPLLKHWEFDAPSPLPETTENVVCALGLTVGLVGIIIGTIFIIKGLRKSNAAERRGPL

HLA-DRB1*0401 = HLA-DRB1*0401 (Homo sapiens, UniProt P01903+P01911, A100K/A169T/F76Y/I96L/K127E/L162R/M171V/N62H/P40V/Q125Y/R42H/S133A/S149N/S66Y/V115G/V209L/W38E)
HLA-DRB1*0404 = HLA-DRB1*0404 (Homo sapiens, UniProt P01903+P01911, A100R/A169T/F76Y/I96L/K127E/L162R/M171V/N62H/P40V/Q125Y/R42H/S133A/S149N/S66Y/V209L/W38E)
HLA-DRB1*0405 = HLA-DRB1*0405 (Homo sapiens, UniProt P01903+P01911, A100R/A169T/D86S/F76Y/I96L/K127E/L162R/M171V/N62H/P40V/Q125Y/R42H/S133A/S149N/S66Y/V115G/V209L/W38E)
HLA-DRB1*0701 = HLA-DRB1*0701 (Homo sapiens, UniProt P01903+P01911, A100R/A102G/A103Q/D57E/D86V/E43K/F76Y/K127E/L162R/M171V/P40G/Q125H/Q99D/R33Q/R42Y/R54Q/S133A/S66F/T210M/V115G/Y107V/Y59L/Y89S)
HLA-DRB1*0802 = HLA-DRB1*0802 (Homo sapiens, UniProt P01903+P01911, A100R/A103L/A169T/F76Y/H45Y/I96F/K41T/L162R/M171V/P40S/Q125H/Q178H/Q39Y/Q99D/R218S/R42G/S66Y/V115G/W38E)
HLA-DRB1*0901 = HLA-DRB1*0901 (Homo sapiens, UniProt P01903+P01911, A100R/A103E/D57H/D86V/F55Y/F60I/F76Y/I96F/K127E/L162R/M171V/P40D/Q125H/Q99R/R33Q/R42F/S133A/S66N/T210M/V115G/W38K/Y107V/Y59G/Y89S)
HLA-DRB1*1101 = HLA-DRB1*1101 (Homo sapiens, UniProt P01903+P01911, A100R/A169T/A87E/I96F/K41T/L162R/M171V/P40S/Q125H/Q178H/Q39Y/Q99D/R42S/S66Y/T262R/V115G/W38E)
HLA-DRB1*1101, sequence (P01903 26-254 limits assumed, other chains not shown): as the sequence (P01903 26-254, other chains not shown) above

HLA-DRB1*1302 = HLA-DRB1*1302 (Homo sapiens, UniProt P01903+P01911, A100E/A169T/K41T/L162R/M171V/P40S/Q125H/Q178H/Q39Y/Q99D/R42S/S66N/T262R/V115G/W38E/Y61H)
HLA-DRB1*1302, sequence (P01903 26-254 limits assumed, other chains not shown): as the sequence (P01903 26-254, other chains not shown) above

HLA-DRB4*0101 = HLA-DRB4*0101 (Homo sapiens, UniProt P01903+P13762, G164S)
HLA-DRB5*0101 = HLA-DRB5*0101 (Homo sapiens, UniProt P01903+Q30154)

CC[C@H](C)[C@H](NC(=O)[C@H](CCC(N)=O)NC(=O)[C@H](CCC(=O)O)NC(=O)[C@@H](N)Cc1ccccc1)C(=O)N[C@H](C(=O)N[C@@H](Cc1ccccc1)C(=O)N[C@@H](CCSC)C(=O)N[C@@H](CCC(N)=O)C(=O)N[C@@H](C)C(=O)N[C@@H](CC(C)C)C(=O)N[C@@H](CCC(N)=O)C(=O)N[C@@H](CC(C)C)C(=O)N[C@@H](CC(C)C)C(=O)N[C@@H](CC(C)C)C(=O)N[C@@H](CCC(=O)O)C(=O)O)[C@@H](C)O [NS2.94]
IC50 (HLA-DRB1*1501): 10 nM

CC[C@H](C)[C@H](NC(=O)[C@H](C)NC(=O)CNC(=O)[C@@H](N)CCC(=O)O)C(=O)N[C@H](C(=O)NCC(=O)N[C@@H](CCC(=O)O)C(=O)N[C@H](C(=O)N[C@@H](CO)C(=O)N1CCC[C@H]1C(=O)N[C@@H](CC(C)C)C(=O)N1CCC[C@H]1C(=O)N[C@@H](CO)C(=O)N[C@@H](CC(C)C)C(=O)N1CCC[C@H]1C(=O)NCC(=O)N[C@@H](Cc1c[nH]cn1)C(=O)N[C@H](C(=O)N[C@@H](CC(=O)O)C(=O)O)[C@@H](C)O)[C@@H](C)CC)C(C)C [NS1.153]
IC50 (HLA-DRB1*0101): 64 nM | IC50 (HLA-DRB1*0301): 8330 nM | IC50 (HLA-DRB1*0401): 14 nM | IC50 (HLA-DRB1*0404): 6 nM | IC50 (HLA-DRB1*0405): 98 nM | IC50 (HLA-DRB1*0701): > 10000 nM | IC50 (HLA-DRB1*0802): 227 nM | IC50 (HLA-DRB1*0901): 6360 nM | IC50 (HLA-DRB1*1101): 88 nM | IC50 (HLA-DRB1*1302): 1770 nM | IC50 (HLA-DRB1*1501): 7 nM | IC50 (HLA-DRB4*0101): 131 nM | IC50 (HLA-DRB5*0101): 1140 nM

CC[C@H](C)[C@H](NC(=O)[C@H](CO)NC(=O)[C@H](CC(N)=O)NC(=O)[C@@H](N)CCC(N)=O)C(=O)N[C@H](C(=O)N[C@H](C(=O)N[C@@H](CCC(=O)O)C(=O)N[C@@H](CCCNC(=N)N)C(=O)N[C@@H](CCSC)C(=O)N[C@H](C(=O)N[C@@H](CC(C)C)C(=O)N[C@@H](CO)C(=O)N[C@@H](C)C(=O)N[C@@H](Cc1ccccc1)C(=O)N[C@@H](CC(=O)O)C(=O)O)C(C)C)[C@@H](C)CC)[C@@H](C)O [NP.58]
IC50 (HLA-DRB1*0404): 188 nM | IC50 (HLA-DRB5*0101): > 10000 nM

CC[C@H](C)[C@H](N)C(=O)NCC(=O)N[C@@H](CCCNC(=N)N)C(=O)N[C@@H](Cc1ccccc1)C(=O)N[C@@H](Cc1ccc(O)cc1)C(=O)N[C@H](C(=O)N[C@@H](CCC(N)=O)C(=O)N[C@@H](CCSC)C(=O)N[C@@H](CS)C(=O)N[C@H](C(=O)N[C@@H](CCC(=O)O)C(=O)N[C@@H](CC(C)C)C(=O)N[C@@H](CCCCN)C(=O)N[C@@H](CC(C)C)C(=O)N[C@@H](CO)C(=O)N[C@@H](CC(=O)O)C(=O)N[C@@H](Cc1ccc(O)cc1)C(=O)N[C@@H](CCC(=O)O)C(=O)NCC(=O)O)[C@@H](C)O)[C@@H](C)CC [NP.36] (H-IGRFYIQMCTELKLSDYEG-OH)
IC50 (HLA-DRB1*0101): 31 nM | IC50 (HLA-DRB1*0301): 291 nM | IC50 (HLA-DRB1*0401): 53 nM | IC50 (HLA-DRB1*0404): 116 nM | IC50 (HLA-DRB1*0405): 29 nM | IC50 (HLA-DRB1*0701): 443 nM | IC50 (HLA-DRB1*0802): 486 nM | IC50 (HLA-DRB1*0901): 193 nM | IC50 (HLA-DRB1*1101): 236 nM | IC50 (HLA-DRB1*1302): 2700 nM | IC50 (HLA-DRB1*1501): 23 nM | IC50 (HLA-DRB4*0101): 210 nM | IC50 (HLA-DRB5*0101): 28 nM

CC[C@H](C)[C@H](NC(=O)[C@H](CCCCN)NC(=O)[C@H](CC(N)=O)NC(=O)[C@H](C)NC(=O)[C@H](CCCCN)NC(=O)[C@H](CCC(=O)O)NC(=O)[C@H](CC(C)C)NC(=O)[C@H](Cc1ccc(O)cc1)NC(=O)[C@H](Cc1ccc(O)cc1)NC(=O)[C@@H](NC(=O)[C@H](Cc1c[nH]cn1)NC(=O)[C@@H](NC(=O)[C@H](CCC(=O)O)NC(=O)[C@H](CCCNC(=N)N)NC(=O)[C@@H](N)CCCNC(=N)N)C(C)C)[C@@H](C)CC)C(=O)O [PA.124]
IC50 (HLA-DRB1*0301): > 10000 nM | IC50 (HLA-DRB1*1501): 4 nM

CC[C@H](C)[C@H](NC(=O)CNC(=O)[C@@H](NC(=O)[C@@H](NC(=O)[C@H](CO)NC(=O)[C@H](C)NC(=O)[C@H](C)NC(=O)[C@@H](NC(=O)[C@@H](NC(=O)[C@H](CC(C)C)NC(=O)[C@@H]1CCCN1C(=O)[C@@H](N)CC(=O)O)C(C)C)C(C)C)[C@@H](C)CC)[C@@H](C)CC)C(=O)N[C@@H](CC(C)C)C(=O)N[C@@H](Cc1c[nH]cn1)C(=O)N[C@@H](CC(C)C)C(=O)O [M2.24]
IC50 (HLA-DRB1*0301): > 10000 nM | IC50 (HLA-DRB5*0101): > 10000 nM

CSCC[C@H](NC(=O)[C@H](Cc1c[nH]c2ccccc12)NC(=O)[C@@H](NC(=O)[C@H](CC(C)C)NC(=O)[C@H](CCC(N)=O)NC(=O)[C@H](CO)NC(=O)[C@@H](N)CCCCN)C(C)C)C(=O)N[C@@H](C)C(=O)N[C@@H](CS)C(=O)N[C@@H](Cc1c[nH]cn1)C(=O)N[C@@H](CO)C(=O)N[C@@H](C)C(=O)N[C@@H](C)C(=O)N[C@@H](Cc1ccccc1)C(=O)N[C@@H](CCC(=O)O)C(=O)O [NP.325]
IC50 (HLA-DRB1*0101): 35 nM | IC50 (HLA-DRB1*0404): 34 nM | IC50 (HLA-DRB1*1302): > 10000 nM
